Source: publication PMC13376213, “Systematic discovery of motif-based interactions of the auxiliary domains of USP family deubiquitinases” (Nature Communications, 2026)
Read-outs that look alike come from different tables or passages of the source. Ends that are not written are not given here.

How the values were obtained:
USP33 zf-UBP domain = molecular target: T1, USP33 zf-UBP domain (Homo sapiens, UniProt Q8TEY7); assay: FP-monitored affinity measurements, USP33 zf-UBP; format: binding; conditions: read-out: KD, USP33 zf-UBP
T1 construct: USP33_UBP; Q8TEY7; zf-UBP; 36; 130; 6xHis-GST (N, cleaved yes); made in house; host or cells: Escherichia coli BL21-Gold (DE3)
T1 sequence (Q8TEY7 with tags, fused parts or gaps): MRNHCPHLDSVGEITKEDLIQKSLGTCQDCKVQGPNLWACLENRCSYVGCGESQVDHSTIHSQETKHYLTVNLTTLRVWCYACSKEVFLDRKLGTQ
Description: (§3) The measurements were performed at room temperature in a non-binding black half area 96-well plate (Corning) with a total volume of 50 μL per well. […] All measurements were performed in three technical replicates. […] The saturation curves were fitted to the quadratic equation, and the displacement curves were fitted to a sigmoidal dose-response equation as described previously[68].

USP20 zf-UBP domain = molecular target: T2, USP20 zf-UBP domain (Homo sapiens, UniProt Q9Y2K6); assay: FP-monitored affinity measurements, USP20 zf-UBP; format: binding
T2 construct: USP20_UBP; Q9Y2K6; zf-UBP; 99; 6xHis-GST (N, cleaved yes); made in house; host or cells: Escherichia coli BL21-Gold (DE3)
Description: as §3

USP20 DUSP2 domain [1] = molecular target: T3, USP20 DUSP2 domain (Homo sapiens, UniProt Q9Y2K6); assay: Peptide SPOT array, USP20 DUSP2; format: binding; conditions: for Average: peptide SPOT array intensity minus background, mean of 2 replicas; for Average / Normalize to peptide with higher intensity %: sheet S5A; for Normalize to higher intensity (%) / Normalize to peptide with higher intensity %: peptide SPOT array; for Normalize to higher intensity (%): USP20 DUSP2, average normalised to the highest intensity (ARNTL2 = 100); for Normalize to peptide with higher intensity %: average normalized to the peptide with highest intensity (ARNTL2 = 100);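 on all read-outs here: GST-tagged domain probed overnight at 4 °C on peptides made on cellulose membranes, bound protein detected via HRP-coupled anti-GST antibody, spot intensity from image analysis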
T3 construct: USP20_DUSP2; Q9Y2K6; DUSP2; 776; 894; 6xHis-GST (N, cleaved yes); made in house; host or cells: Escherichia coli BL21-Gold (DE3)
Description: (§4) Peptides were synthesized on cellulose membranes with standard Fluoroenylmethylox-ycarbonyl (Fmoc) chemistry using a Multipep automated synthesizer at INTAVIS (Tübingen, Germany) or ordered from JPT (PepSpots). The membranes were activated with methanol for 5 min and washed three times for 5 min with TBST (50 mM Tris, 137 mM NaCl, 2.7 mM KCl, pH 8.0, 0.05% Tween-20). The membranes were incubated with blocking buffer (5% skim milk powder in TBST) for 2 h at room temperature while shaking. The membranes were incubated with the GST-tagged protein diluted at the desired concentration in blocking buffer and incubated overnight at 4 °C while shaking. The membrane was rinsed 3 times with TBST and incubated with HRP-conjugated anti-GST antibody (Cytiva, RPN1236; 1:3000 dilution) in blocking buffer for 1 h at 4 °C while shaking. […] The images were analyzed in Fiji (ImageJ2 version 2.9.0).

USP33 DUSP2 domain [2] = molecular target: T4, USP33 DUSP2 domain (Homo sapiens, UniProt Q8TEY7); assay: FP-monitored affinity measurements, USP33 DUSP2; format: binding
T4 construct: USP33_DUSP2; Q8TEY7; DUSP2; 806; 921; 6xHis-GST (N, cleaved yes); made in house; host or cells: Escherichia coli BL21-Gold (DE3)
T4 sequence (Q8TEY7 with tags, fused parts or gaps): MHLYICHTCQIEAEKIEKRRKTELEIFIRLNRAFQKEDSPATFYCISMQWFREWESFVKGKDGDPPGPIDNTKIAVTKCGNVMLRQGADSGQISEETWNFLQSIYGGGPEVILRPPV
Description: (§1) Proteins were expressed in Escherichia coli (E.coli) BL21-Gold (DE3) bacteria. The cDNAs encoding N-terminal 6-histidine-glutathione S-transferase tagged (6xHis-GST), 6xHis-tagged or GST-tagged protein domains in pETM33, pETM11, pGEX6P1 expression vectors respectively, were obtained from Genescript or kindly provided by MRC-PPU (Suppl. Data 1) The bacteria were transformed with the plasmid and grew at 37 °C in 2YT (5 g/L NaCl, 16 g/L tryptone and 10 g/L yeast extract) supplemented with Kanamycin (30 μg/mL) until reaching an OD600 of 0.7. Protein expression was induced with 0.3 mM isopropyl β-D-1 thiogalactopyranoside (IPTG) for 18 h at 18 °C while shaking. For zinc-finger domains, 50 μM of ZnSO4 was added during expression. The bacterial cultures were pelleted for 15 minutes at 4000 x g at 4 °C and stored at −20 °C until purification. The pellets were resuspended in lysis buffer (1× phosphate-buffered saline (PBS), 0.5 % Triton-X, 5 mM MgCl2, 10 μg/mL lysozyme, cOmplete^TM EDTA-free protease inhibitor cocktail (Roche), 10 μg/mL DNAseI) and incubated for 1 h shaking at 4 °C. […] The supernatant was incubated with glutathione (GSH) Sepharose (Cytiva) or Ni2+ Sepharose (Cytiva) for 1 h at 4 °C while shaking. The beads with the bound protein were washed with 1x PBS and eluted with 10 mM reduced glutathione in 50 mM Tris pH 8.0. For fluorescence polarization experiments, the proteins were not eluted from the beads, and the 6xHis-GST tag was cleaved overnight on GSH Sepharose beads at 4 °C while shaking with PreScission Protease in cleavage buffer (50 mM Tris pH 7.5, 150 mM NaCl, 1 mM DTT). The sample containing the cleaved domain was separated from the tag and protease and buffer-exchanged to 50 mM sodium phosphate buffer pH 7.4 with 1 mM DTT using a PD-10 desalting column (Cytiva). The purity and size of the proteins were analyzed by SDS-PAGE electrophoresis.
(§2) The measurements were performed at room temperature in a non-binding black half area 96-well plate (Corning) with a total volume of 50 μL per well. Peptides were obtained from GeneCust (France) with >95% purity. FITC-labeled peptides (N-terminally FITC-labeled without spacer and C-terminally amidated) were dissolved in dimethyl sulfoxide (DMSO), and unlabeled peptides (N-terminally acetylated and C-terminally amidated) were dissolved in 50 mM phosphate buffer pH 7.4. Saturation measurements were performed using a serial dilution of the protein domains in phosphate buffer (25 μL) and the addition of 10 nM FITC-labeled peptide (in phosphate buffer supplemented with 2 mM DTT) (25 μL). […] All measurements were performed in three technical replicates. The data were analyzed using GraphPad Prism version 9.2.0 for MacOS (GraphPad Software, San Diego, California USA, www.graphpad.com). The saturation curves were fitted to the quadratic equation, and the displacement curves were fitted to a sigmoidal dose-response equation as described previously.

USP20 DUSP2 domain [3] = molecular target: T3, USP20 DUSP2 domain; assay: FP-monitored affinity measurements, USP20 DUSP2; format: binding
Description: as §1, §2

USP33 DUSP2 domain [4] = molecular target: T4, USP33 DUSP2 domain; assay: Peptide SPOT array, USP33 DUSP2; format: binding; conditions: average normalised to the highest intensity (CCDC88B = 100)
Description: as §4

FLAG-USP33 = assay: IP-MS of FLAG-USP33 and variants vs empty vector; format: cell-based, human; conditions: IP-MS
Description: For transfection, 1x10^6 HEK293 cells were seeded in 10 cm dishes with DMEM, 10% FBS, 1% L-G (without antibiotic) medium, incubated at 37 °C, with 5 % CO2 for 24 h. Cells were transfected with a transfection mix containing […] of Opti-MEM (Thermo Fisher Scientific), 20 μL of PEI stock (1 mg/mL) and […] of the desired cDNA. For co-transfection, 2.5 μg of DNA of each plasmid was used. The mix was vortexed for 15 s and incubated at room temperature for 15–20 min. The transfection mix was added to the dish and gently mixed. Plates were incubated at 37 °C for 36–48 h before harvesting. For USP33 constructs, 5 μM Bortezomib (proteasome inhibitor) was added 4 hours before harvesting the cells.
FLAG fusion proteins were immunoprecipitated from HEK293 cells transfected with plasmids encoding the protein of interest using the anti-FLAG M2 affinity gel from Sigma-Aldrich. Cell pellets were lysed with 100–200 μL/per dish lysis buffer (Pierce RIPA buffer, 1X protease inhibitor (Roche), 50 unit/μL of Benzonase Nuclease) rotating at 4 °C for 30–45 min. […] The cell lysate was clarified by centrifugation at 17,000 x g, at 4 °C for 12 min, and the supernatant was transferred to a clean, pre-chilled low-binding Eppendorf tube. […] The IP samples were centrifuged at 6500 x g at 4 °C for 30 s. The supernatant containing the unbound proteins was transferred to a clean tube. The resin was washed three times with 500 μL of TBS, centrifuged at 6500 x g at 4 °C for 30 s. The bound FLAG fusion protein was eluted with 100 μL of 150 ng/μL 3X FLAG peptide (Sigma) in TBS and incubated in the cold room for 1 h or overnight. The tube was centrifuged at 6500 x g at 4 °C for 30 s; the eluted proteins were transferred to a clean tube. The eluted proteins were prepared for analysis by western blot or Mass Spectrometry.
Immunoprecipitation (IP) was carried out as described above; four technical replicates of each IP condition were performed, and the empty vector was used as a negative control. The eluted protein was processed following the Strap-micro protocol (Protifi). The IP elution containing 1–100 μg protein was 1:1 mixed with 2X lysis buffer (10% SDS, 100 mM TEAB pH 8.5). […] Samples were vortexed, mixed with 165 μL of 100 mM TEAB in 90% methanol, and passed through an S-Trap micro column at 4000 g for 30 s to trap the proteins. The column was washed with 150 μL of 100 mM TEAB in 90% methanol (at 4,000 x g for 30 seconds) three times. The S-Trap column was centrifuged again and transferred to a clean 2 mL tube for digestion with 20 μL of digestion buffer (1 μg trypsin per 10 μg sample in 50 mM TEAB), at 37 °C overnight in a thermomixer without shaking. The digested peptides were eluted with […] of 50 mM TEAB in water, […] of 0.2 % formic acid in water, and […] of 50 % acetonitrile in water, centrifuging at 4000 x g for 1 min each time. The three elutions were pooled in a low-binding tube, placed on dry ice until frozen, dried in a SpeedVac vacuum (Thermo Scientific), and proceeded with the LCMS analysis.
Eluted peptides were resuspended in water supplemented with 0.015% dodecyl maltoside and 0.1% formic acid and were injected on a Vanquish Neo UHPLC System operating in trap and elute mode coupled to an Orbitrap Astral Mass Spectrometer (Thermo Fisher Scientific). […] Eluted peptides were analyzed using data-independent acquisition mode on the mass spectrometer.
Peptides were searched against the Uniprot Swissprot Human database (released on 02/01/2023) supplemented with the USP20 and USP33 mutants using DiaNN (v1.9.0)[62] operating in library-free mode. Data filtering and statistical analysis were carried out in Python (v3.9.0) using the packages pandas, numpy, sklearn, scipy, rpy2, Plotnine, and Plotly and R (v4.4.3) using the package limma.
Protein groups identified with a single peptide or quantified in fewer than three replicates in at least 1 condition were filtered out. […]

[5] = USP33_DUSP2, FP displacement by unlabelled peptide, read-out: KD
[6] = USP20_DUSP2, FP displacement by unlabelled peptide, read-out: KD
[7] = FLAG-USP33-ΔDUSP2 vs EV, comparison bh_2 Sample_Limma_ImpMedInt_USP33_DUSP2_domain/EV
[8] = FLAG-USP33-ΔUBP vs EV, comparison bh_2 Sample_Limma_ImpMedInt_USP33_UBP_domain/EV

T3 sequence (Q9Y2K6 with tags, fused parts or gaps): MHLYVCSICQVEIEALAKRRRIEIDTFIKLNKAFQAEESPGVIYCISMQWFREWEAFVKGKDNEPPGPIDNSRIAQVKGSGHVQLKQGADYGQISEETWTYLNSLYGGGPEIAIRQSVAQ
T2 sequence (Q9Y2K6 4-99): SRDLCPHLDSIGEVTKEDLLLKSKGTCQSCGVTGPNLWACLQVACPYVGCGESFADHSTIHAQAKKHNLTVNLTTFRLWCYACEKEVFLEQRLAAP

Substance | Average (USP20 DUSP2 domain [1]) | Normalize to higher intensity (%) (USP20 DUSP2 domain [1]) | Normalize to peptide with higher intensity % (USP20 DUSP2 domain [1]) [%] | Kd (USP33 DUSP2 domain [2]; [5]) [µM] | Kd (USP20 DUSP2 domain [3]; [6]) [µM] | Normalize to higher intensity (%) (USP33 DUSP2 domain [4]) | other results
EKVKRRLDLDID [CCP110_582-593] |  |  |  |  |  |  | Kd (USP33 zf-UBP domain): > 250 µM; Kd (USP20 zf-UBP domain; read-out: KD, USP20 zf-UBP): > 500 µM
IPMDDDFQLRSFDQLS [HIF1A] | 35.4167 | 19.83 | 19.8322 | 1.5 | 18.7 | 69.9644 | 
NBAS |  |  |  |  |  |  | log2_FC (FLAG-USP33; [7]): 2.843; log2_FC (FLAG-USP33; [8]): 2.886; log2_FC (FLAG-USP33; FLAG-USP33 UBP mutant vs EV, comparison USP33_E86K_D90R/EV, Limma): 2.804
PDVVDDFQLQHRHGPG [MFSD2B] | -6.828 | -3.824 | -3.824 | 0.75 | 44.7 | 51.523 | 
PYIPMDGEDFQLSPICPE [HIF2A531-548] |  |  |  |  |  |  | Kd (USP33 DUSP2 domain [2]; competitive FP: unlabeled peptide (N-acetylated, C-amidated) against protein with 10 nM FITC-labeled peptide, 50 mM phosphate pH 7.4, room temperature, technical triplicate, read-out: KD, USP33 DUSP2): > 1000 µM; Kd (USP20 DUSP2 domain [3]; competitive FP: unlabeled peptide (N-acetylated, C-amidated) against protein with 10 nM FITC-labeled peptide, 50 mM phosphate pH 7.4, room temperature, technical triplicate, read-out: KD, USP20 DUSP2): > 200 µM
QLEEELFQLRQGPAGL [CCDC88B] | 62.4217 | 34.95 | 34.9541 | 40.1 | 22.4 | 100 | 
VWA8 |  |  |  |  |  |  | log2_FC (FLAG-USP33; [7]): 2.1493; log2_FC (FLAG-USP33; [8]): 2.322
YAQSKTQLEVRPV [ROBO1] |  |  |  |  |  |  | Kd (USP20 zf-UBP domain; USP20_UBP, FP displacement by unlabelled peptide, read-out: KD): ~81.6 µM
